The values below come from patent publication US20260109695A1, “PEROXIREDOXIN 3 INHIBITORS AND METHODS OF USE FOR TREATING CANCER” (WAKE FOREST UNIVERSITY HEALTH SCIENCES, priority 2022, published 2026).

The structures appear in SMILES notation. ≈ marks a conversion by molar mass, not a printed value.

The test system of one data set is 578 cancer cells lines. To be noted: of 578 cancer cells lines tested; cited from earlier work.
Data set [1] concerns Enterococcus hirae (ATCC #10541). Kind of data set: Antimicrobial Activity Assay. In kind it is cell-based. How it is done: The overnight growth was then diluted into growth media to make a single solution of E. hirae with a final optical density at 600 nm=0.02 AU. A 20 mM stock solution of Thiostrepton in DMSO was made and used to make multiple dilutions of TS in DMSO. Each TS dilution (0.1 mL) was then added to a test tube containing 10 mL of the diluted E. hirae and grown at 37° C. overnight while shaking at 180 rpm. The next morning, each tube was visually inspected to determine if the cells grew. Final concentrations tested were 0.120, 0.090, 0.075, 0.060, 0.045, 0.030, and 0.015 μM TS. […] Three replicates were made on three separate days (n=9). […] For TS analogs, the dilute E. hirae was treated with 20 µM final concentration of each analog (three replicates each). […] DMSO was used as a positive control (complete cell growth) and 20 µM thiostrepton was used as a negative control.

The next data set can be described thus: Solubility Assay. To be noted: 20 mM HEPES, 100 mM NaCl, pH 7.5, 18-24 hours at ambient temperature. In kind it is physicochemical. The procedure:
A 20 mM stock solution was made for each compound in DMSO. To measure solubility, 0.03-0.05 mL of the stock was added to 0.27 mL 20 mM HEPES, 100 mM NaCl, pH 7.5. The solution was mixed and rotated 18-24 hours at ambient temperature. The next day, solutions were centrifuged for 10 min at 20,000×g at 24° C. to remove insoluble, solid material. Next, 100 μL of the supernatant containing the soluble compound was added to 900 μL DMSO and High Performance Liquid Chromatography was performed as described in Table 1 and either HPLC gradient 1 (Table 2) for HPLC gradient 2 (Table 3). For each analog, a 200 μM standard and a 20 μM standard were prepared and run in parallel (standards were dissolved completely in 100% DMSO). The amount of compound in the experimental sample was calculated by comparing the area under the curve for compound peak to the area for the closest standard and correcting for dilution.

The next data set has as its target T1, purified human PRX3 (Homo sapiens, UniProt P30048).
T1 construct: made in house
T1 sequence (P30048 62-256): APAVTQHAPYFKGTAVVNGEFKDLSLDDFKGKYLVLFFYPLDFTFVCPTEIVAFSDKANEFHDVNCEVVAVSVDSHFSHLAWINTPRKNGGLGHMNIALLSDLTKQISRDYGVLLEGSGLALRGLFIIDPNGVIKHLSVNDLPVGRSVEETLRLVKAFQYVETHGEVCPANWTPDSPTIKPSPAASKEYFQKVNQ
Kind of data set: Biochemical PRX3 Inhibition Assay (crosslink by SDS-PAGE, mono-adduct by MALDI-TOF MS). To be noted: 1-2 hr at 37° C. How it is done:
(§1) To test the activity of compounds, two complimentary assays were used as described below. The Biochemical PRX3 Inhibition Assay tests the ability of each compound to crosslink PRX3 in a simple, in vitro system. In the Cellular Activity Assay, we are testing the ability of compounds to kill SK-OV-3 ovarian cancer cells.
This assay tests the ability of each compound to form a covalent adduct with PRX3. The assay is performed as described in Nelson et al. (2021) Antioxidants (Basel) 10, 150; and Cunniff et al. (2015) PloS one 10, e0127310, and follows the appearance of non-reducible PRX3 crosslinks by SDS PAGE gel electrophoresis and follows the appearance of single PRX3 adducts by mass spectrometry. For this assay, purified human PRX3, hydrogen peroxide (the PRX3 substrate) and all the components required to enable PRX3 to catalytically cycle (thioredoxin-thioredoxin reductase-NAPDH system) are included (details below).
The biochemical PRX3 Inhibition assay contains 100 µM PRX3, 50 µM human TRX2, […] mouse thioredoxin reductase, and a NADPH regenerating system composed of 3.2 mM glucose 6-phosphate, 3.2 U/ml glucose 6-phosphate dehydrogenase and 0.4 mM NADPH. Samples are incubated for 1-2 hr at 37° C. with either 0.2 mM TS (positive control), compounds or an equivalent volume of DMSO (negative control). During this incubation, hydrogen peroxide is added to induce turnover of PRX3. Reactions are stopped by the addition of a buffer containing 100 mM dithiolthreitol (to break disulfide bonds) and SDS (detergent to denature proteins). NADPH, Glucose 6-Phosphate, and glucose 6-phosphate dehydrogenase were purchased from Sigma Aldrich. PRX3, thioredoxin, and thioredoxin reductase were all purified to >98% purity in the Lowther laboratory according to protocols referenced in Nelson et al. (2021) Antioxidants (Basel) 10, 150; and Cunniff et al. (2015) PloS one 10, e0127310.
To measure the amount of PRX3 crosslink, proteins in the reaction were separated by SDS-polyacrlyamide gel electrophoresis and stained for total protein using GelCode Blue (Life Technologies). The amount of unmodified PRX3 and TS-PRX3 crosslink was measured by densiometric analysis of the signal for the PRX3 band running at the MW of a PRX3 crosslink (−46 kDa) compared to the PRX3 signal at the MW of the un-modified PRX3 (˜23 kD).
To measure covalent adduct formation on a single PRX3 monomer, each reaction was exchanged into a mass spectrometry compatible buffer containing 40 mM ammonium citrate, pH 8.3 made in HPLC water. Sample was mixed 1:1 with a matrix solution containing 30 mg/mL sinapinic acid in 70% (vol/vol) acetonitrile, 0.2% formic acid and spotted to onto the sample plate. PRX3 mass was measured by MALDI-TOF MS analysis on a Bruker Daltonics MALDI-TOF MS spectrometer. Spectra were analyzed in FLEXAnalysis Software. The intensity of the reduced PRX3 peak (SH) and intensity of the analog adduct peak was determined and corrected for background signal at the adduct peak in the DMSO control. The fraction of single analog adduct in the monomer peak was determined by dividing the intensity of the adduct peak by the summed intensity of the SH and adduct peaks.

Data set [2] concerns human SK-OV-3 ovarian cancer cells. Description: Cellular Activity Assay (cytotoxicity, crystal violet). In kind it is cell-based. To be noted: SK-OV-3 cells, 48 hr treatment.
Description: as §1
The Cellular Activity Assay measures the EC50 of each compound in human SK-OV-3 ovarian cancer cells TS to be taken into the cell, transported to the mitochondria, and crosslink PRX3.
The cytotoxicity of compounds was measured as described in Nelson et al. (2021) Antioxidants (Basel) 10, 150; Cunniff et al. (2015) PloS one 10, e0127310; and Newick et al. (2012) PloS one 7, e39404. SK-OV-3 is an adherent, epithelial, adenocarcenoma cell line obtained from ATCC (ref #: HTB-77). SK-OV-3 cells are resistant to the commonly used chemotherapeutics, cis-platinum and doxorubicin. For this PRX3 crosslinking assay, SK-OV-3 cells were plated in a 96-well plate. After 24 h recovery, the cells were treated for 48 hr with multiple concentrations of each compound ranging from 0.1-100 μM.
Cells were washed with PBS to remove dead cells and the remaining live cells were fixed with 3.0% formaldehyde and stained with 0.1% crystal violet. The amount of crystal violet was determined by reading the absorbance at 540 nm (crystal violet dye dissolved in 100% methanol) using a plate reader. The signal for crystal violet dye is proportional to the biomass of remaining live cells. GraphPad Prism9 software was used to calculate the effective inhibitory concentration (EC50) of test compounds. Results for each compound, are normalized to the amount of cells in control wells treated with the equivalent concentration of DMSO (negative control). TS or Compound B were included in each set of assays as a positive control.

Where [3] appears, read: E. hirae, overnight at 37° C., n=9.

Regarding `C=C(NC(=O)C(=C)NC(=O)c1csc(C2=N[C@@H]3c4csc(n4)[C@H]4NC(=O)c5csc(n5)[C@H]([C@](C)(O)[C@@H](C)O)NC(=O)[C@H]5CSC(=N5)/C(=C/C)NC(=O)[C@H]([C@@H](C)O)NC(=O)c5csc(n5)[C@]3(CC2)NC(=O)[C@H](C)NC(=O)C(=C)NC(=O)[C@H](C)NC(=O)[C@H]([C@@H](C)CC)N[C@@H]2C=Cc3c([C@H](C)O)cc(nc3[C@H]2O)C(=O)O[C@@H]4C)n1)C(N)=O` [Thiostrepton, reference compound], the “Number of tumor cells lines with meaningful efficacy” value in the data set with 578 cancer cells lines was 403. In addition, in data set [1] (setting [3]), the “TS concentrations at which complete growth was observed” value was not above 0.030 µM and the “TS concentrations at which no growth was observed” value was not below 0.045 µM. Besides, in data set [1] (Enterococcus hirae, ATCC10541, read-out: Antimicrobial Activity), the MIC lay in the range of 0.02 to 0.2 µM (≈ 0.0333 to 0.333 µg/mL). Besides, in the data set “Solubility Assay”, the solubility result is on record as “+ (<0.1 mM)”. For the same compound, the “PRX3 Inhibition (Crosslink + Mono-adduct)” value on purified human PRX3 was “++ (50-90%)”. For the same compound, the EC50 (in general, the concentration that produces a half-maximal response) in data set [2] fell in the range of 1 to 10 µM.
